Assay results from patent publication US12673945B2, “3-((8-((1H-pyrazol-4-yl)amino)imidazo[1,2-a]pyridin-3-yl)ethinyl)-n-phenylbenzamide derivative, method for preparing same, and pharmaceutical composition containing same as active ingredient for prevention or treatment of cancer” (DAEGU-GYEONGBUK MEDICAL INNOVATION FOUNDATION, priority 2020, dated 2026).

Tests used:
Experiment in all cases: scanMAX Kinase panel (DiscoverX)
Assay type in all cases: binding
JNK2 = biological target: T1, JNK2 (Homo sapiens, UniProt P45984)
T1 construct: purchased DiscoverX scanMAX Kinase panel
Description: (§1) Among the example compounds of the present invention, the enzyme (kinase) selectivity of the selected compounds of Examples 1 and 4 was measured by requesting DiscoverX. At this time, the experiment was performed using a panel for scanMAX™ Kinase. The concentration of the drug treated to the enzyme was 1 μM in DMSO, and the percentage control (% control) was determined by the method shown in Equation 1 below. (Example Compound−Positive Control)/(Negative Control−Positive control)×100 [Equation 1]

SRC = biological target: T2, SRC (Homo sapiens, UniProt P12931); conditions: read-out: % Cont @ 1 uM
T2 construct: purchased DiscoverX scanMAX Kinase panel
Description: as §1

EGFR(L747-T751del, Sins) = biological target: T3, EGFR(L747-T751del, Sins) (Homo sapiens, UniProt P00533, DEL747-750/T751S)
T3 construct: purchased DiscoverX scanMAX Kinase panel
Description: as §1

MLK3 = biological target: T4, MLK3 (Homo sapiens, UniProt Q16584)
T4 construct: purchased DiscoverX scanMAX Kinase panel
Description: as §1

FGR = biological target: T5, FGR (Homo sapiens, UniProt P09769); conditions: read-out: % Cont @ 1 uM
T5 construct: purchased DiscoverX scanMAX Kinase panel
T5 sequence (P09769 whole entry): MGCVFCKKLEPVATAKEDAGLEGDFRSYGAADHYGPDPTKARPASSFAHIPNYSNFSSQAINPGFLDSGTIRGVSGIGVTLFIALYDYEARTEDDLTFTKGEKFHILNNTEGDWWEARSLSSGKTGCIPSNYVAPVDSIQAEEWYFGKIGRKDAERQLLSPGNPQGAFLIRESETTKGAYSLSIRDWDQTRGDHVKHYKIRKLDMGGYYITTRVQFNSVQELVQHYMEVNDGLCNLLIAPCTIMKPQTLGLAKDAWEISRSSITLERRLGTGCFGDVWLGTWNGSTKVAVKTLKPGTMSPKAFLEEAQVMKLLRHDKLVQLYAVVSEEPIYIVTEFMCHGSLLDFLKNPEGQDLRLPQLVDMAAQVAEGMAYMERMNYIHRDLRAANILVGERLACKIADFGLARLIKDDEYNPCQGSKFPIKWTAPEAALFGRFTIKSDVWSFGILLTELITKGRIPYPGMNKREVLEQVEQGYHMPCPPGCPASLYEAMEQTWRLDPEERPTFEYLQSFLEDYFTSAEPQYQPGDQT
Description: as §1

[1] = biological target: T6, EGFR(L747-S752del, P753S) (Homo sapiens, UniProt P00533, DEL747-752/P753S)
T6 construct: purchased DiscoverX scanMAX Kinase panel
Description: as §1

RET(V804L) = biological target: T7, RET(V804L) (Homo sapiens, UniProt P07949, V804L); conditions: read-out: % Cont @ 1 uM
T7 construct: purchased DiscoverX scanMAX Kinase panel
T7 sequence (P07949 29-1114 V804L): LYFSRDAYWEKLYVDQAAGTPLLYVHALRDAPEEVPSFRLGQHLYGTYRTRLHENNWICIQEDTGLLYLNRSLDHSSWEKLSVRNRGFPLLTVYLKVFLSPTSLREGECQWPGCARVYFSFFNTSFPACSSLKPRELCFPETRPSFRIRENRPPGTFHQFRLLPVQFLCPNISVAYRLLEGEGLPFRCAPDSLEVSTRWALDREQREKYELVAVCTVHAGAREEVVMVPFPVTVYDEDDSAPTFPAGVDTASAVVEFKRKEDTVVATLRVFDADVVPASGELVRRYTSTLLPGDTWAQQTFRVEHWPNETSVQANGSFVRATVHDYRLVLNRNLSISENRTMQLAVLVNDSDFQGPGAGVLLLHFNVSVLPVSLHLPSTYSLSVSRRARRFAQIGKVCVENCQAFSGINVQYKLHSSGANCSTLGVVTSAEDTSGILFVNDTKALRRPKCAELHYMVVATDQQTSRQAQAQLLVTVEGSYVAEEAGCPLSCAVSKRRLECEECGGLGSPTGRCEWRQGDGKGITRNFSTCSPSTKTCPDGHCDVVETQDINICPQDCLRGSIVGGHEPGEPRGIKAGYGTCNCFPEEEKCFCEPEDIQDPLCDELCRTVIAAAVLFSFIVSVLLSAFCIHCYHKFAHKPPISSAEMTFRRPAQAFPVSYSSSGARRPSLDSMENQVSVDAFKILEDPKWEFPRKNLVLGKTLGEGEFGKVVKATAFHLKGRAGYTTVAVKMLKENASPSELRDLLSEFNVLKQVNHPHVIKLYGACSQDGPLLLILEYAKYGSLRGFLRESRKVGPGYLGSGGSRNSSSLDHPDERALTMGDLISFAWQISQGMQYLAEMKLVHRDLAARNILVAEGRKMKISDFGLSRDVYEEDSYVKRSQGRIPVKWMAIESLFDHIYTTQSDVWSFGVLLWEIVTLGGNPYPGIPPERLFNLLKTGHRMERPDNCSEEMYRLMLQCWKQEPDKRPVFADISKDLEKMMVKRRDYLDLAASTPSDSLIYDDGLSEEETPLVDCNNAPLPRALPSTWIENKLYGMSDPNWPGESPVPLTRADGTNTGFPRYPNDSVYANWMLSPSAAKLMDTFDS
Description: as §1

p38-gamma = biological target: T8, p38-gamma (Homo sapiens, UniProt P53778); conditions: read-out: % Cont @ 1 uM
T8 construct: purchased DiscoverX scanMAX Kinase panel
T8 sequence (P53778 whole entry): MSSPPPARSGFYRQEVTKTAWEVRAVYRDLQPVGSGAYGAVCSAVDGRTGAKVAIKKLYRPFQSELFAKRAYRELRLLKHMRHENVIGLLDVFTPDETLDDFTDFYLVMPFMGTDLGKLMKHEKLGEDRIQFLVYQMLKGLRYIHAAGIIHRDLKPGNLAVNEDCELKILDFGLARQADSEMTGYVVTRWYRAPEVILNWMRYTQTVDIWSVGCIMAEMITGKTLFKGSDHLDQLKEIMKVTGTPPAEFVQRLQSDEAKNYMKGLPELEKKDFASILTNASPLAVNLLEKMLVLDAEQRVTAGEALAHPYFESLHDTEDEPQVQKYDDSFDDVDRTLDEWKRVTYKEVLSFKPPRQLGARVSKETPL
Description: as §1

MLK1 = biological target: T9, MLK1 (Homo sapiens, UniProt P80192); conditions: read-out: % Cont @ 1 uM
T9 construct: purchased DiscoverX scanMAX Kinase panel
Description: as §1

CDC2L1 = biological target: T10, CDC2L1 (Homo sapiens, UniProt P21127); conditions: read-out: % Cont @ 1 uM
T10 construct: purchased DiscoverX scanMAX Kinase panel
T10 sequence (P21127 whole entry): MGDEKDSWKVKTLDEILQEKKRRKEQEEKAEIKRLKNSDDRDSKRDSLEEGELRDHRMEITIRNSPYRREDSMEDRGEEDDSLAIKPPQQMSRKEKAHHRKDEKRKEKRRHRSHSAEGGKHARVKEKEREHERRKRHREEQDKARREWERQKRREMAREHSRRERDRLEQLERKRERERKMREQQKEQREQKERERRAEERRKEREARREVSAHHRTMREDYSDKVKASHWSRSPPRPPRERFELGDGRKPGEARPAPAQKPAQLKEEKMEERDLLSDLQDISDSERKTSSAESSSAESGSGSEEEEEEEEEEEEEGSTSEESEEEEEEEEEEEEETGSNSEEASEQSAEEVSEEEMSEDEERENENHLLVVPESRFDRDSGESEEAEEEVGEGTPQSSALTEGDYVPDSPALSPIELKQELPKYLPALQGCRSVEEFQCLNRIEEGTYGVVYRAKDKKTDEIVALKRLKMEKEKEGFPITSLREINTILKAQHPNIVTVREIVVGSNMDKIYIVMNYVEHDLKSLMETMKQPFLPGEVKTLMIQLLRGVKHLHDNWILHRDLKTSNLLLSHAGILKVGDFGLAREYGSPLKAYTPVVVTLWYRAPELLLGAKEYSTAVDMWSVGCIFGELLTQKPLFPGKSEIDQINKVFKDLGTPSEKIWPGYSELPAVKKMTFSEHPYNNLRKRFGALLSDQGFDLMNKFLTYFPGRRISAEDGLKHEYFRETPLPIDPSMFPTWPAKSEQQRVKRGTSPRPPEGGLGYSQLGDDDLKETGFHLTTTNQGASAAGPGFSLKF
Description: as §1

STK33 = biological target: T11, STK33 (Homo sapiens, UniProt Q9BYT3); conditions: read-out: % Cont @ 1 uM
T11 construct: purchased DiscoverX scanMAX Kinase panel
Description: as §1

RET(V804M) = biological target: T12, RET(V804M) (Homo sapiens, UniProt P07949, V804M); conditions: read-out: % Cont @ 1 uM
T12 construct: purchased DiscoverX scanMAX Kinase panel
T12 sequence (P07949 29-1114 V804M): as the sequence (P07949 29-1114 V804L) above, with L776M counted along it
Description: as §1

RET = biological target: T13, RET (Homo sapiens, UniProt P07949); conditions: read-out: % Cont @ 1 uM
T13 construct: purchased DiscoverX scanMAX Kinase panel
T13 sequence (P07949 29-1114): as the sequence (P07949 29-1114 V804L) above, with L776V counted along it
Description: as §1

TESK1 = biological target: T14, TESK1 (Homo sapiens, UniProt Q15569); conditions: read-out: % Cont @ 1 uM
T14 construct: purchased DiscoverX scanMAX Kinase panel
Description: as §1

FGFR1 = biological target: T15, FGFR1 (Homo sapiens, UniProt P11362); conditions: read-out: % Cont @ 1 uM
T15 construct: purchased DiscoverX scanMAX Kinase panel
Description: as §1

KIT(D816H) = biological target: T16, KIT(D816H) (Homo sapiens, UniProt P10721, D816H); conditions: read-out: % Cont @ 1 uM
T16 construct: purchased DiscoverX scanMAX Kinase panel
Description: as §1

IRAK4 = biological target: T17, IRAK4 (Homo sapiens, UniProt Q9NWZ3)
T17 construct: purchased DiscoverX scanMAX Kinase panel
T17 sequence (Q9NWZ3 whole entry): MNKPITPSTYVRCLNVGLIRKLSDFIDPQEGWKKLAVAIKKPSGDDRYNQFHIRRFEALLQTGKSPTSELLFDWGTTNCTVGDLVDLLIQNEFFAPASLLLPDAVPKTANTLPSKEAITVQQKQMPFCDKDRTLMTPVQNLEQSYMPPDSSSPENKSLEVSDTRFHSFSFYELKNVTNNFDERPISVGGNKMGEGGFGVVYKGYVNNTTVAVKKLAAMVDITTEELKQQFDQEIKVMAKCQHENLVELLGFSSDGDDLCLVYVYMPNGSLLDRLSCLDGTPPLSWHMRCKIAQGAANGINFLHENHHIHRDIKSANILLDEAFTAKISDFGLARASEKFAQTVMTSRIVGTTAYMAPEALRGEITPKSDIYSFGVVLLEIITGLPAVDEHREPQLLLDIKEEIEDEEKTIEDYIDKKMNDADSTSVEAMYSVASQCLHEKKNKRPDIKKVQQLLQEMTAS
Description: as §1

[2] = biological target: T18, ABL1(M351T)-phosphorylated (Homo sapiens, UniProt P00519, M351T); conditions: read-out: % Cont @ 1 uM
T18 construct: purchased DiscoverX
Description: as §1

FLT4 = biological target: T19, FLT4 (Homo sapiens, UniProt P35916); conditions: read-out: % Cont @ 1 uM
T19 construct: purchased DiscoverX scanMAX Kinase panel
Description: as §1

EGFR(G719C) = biological target: T20, EGFR(G719C) (Homo sapiens, UniProt P00533, G719C)
T20 construct: purchased DiscoverX scanMAX Kinase panel
Description: as §1

PAK3 = biological target: T21, PAK3 (Homo sapiens, UniProt O75914); conditions: read-out: % Cont @ 1 uM
T21 construct: purchased DiscoverX scanMAX Kinase panel
Description: as §1

MKNK2 = biological target: T22, MKNK2 (Homo sapiens, UniProt Q9HBH9); conditions: read-out: % Cont @ 1 uM
T22 construct: purchased DiscoverX scanMAX Kinase panel
Description: as §1

SRMS = biological target: T23, SRMS (Homo sapiens, UniProt Q9H3Y6); conditions: read-out: % Cont @ 1 uM
T23 construct: purchased DiscoverX scanMAX Kinase panel
Description: as §1

FGFR4 = biological target: T24, FGFR4 (Homo sapiens, UniProt P22455); conditions: read-out: % Cont @ 1 uM
T24 construct: purchased DiscoverX scanMAX Kinase panel
T24 sequence (P22455 22-802): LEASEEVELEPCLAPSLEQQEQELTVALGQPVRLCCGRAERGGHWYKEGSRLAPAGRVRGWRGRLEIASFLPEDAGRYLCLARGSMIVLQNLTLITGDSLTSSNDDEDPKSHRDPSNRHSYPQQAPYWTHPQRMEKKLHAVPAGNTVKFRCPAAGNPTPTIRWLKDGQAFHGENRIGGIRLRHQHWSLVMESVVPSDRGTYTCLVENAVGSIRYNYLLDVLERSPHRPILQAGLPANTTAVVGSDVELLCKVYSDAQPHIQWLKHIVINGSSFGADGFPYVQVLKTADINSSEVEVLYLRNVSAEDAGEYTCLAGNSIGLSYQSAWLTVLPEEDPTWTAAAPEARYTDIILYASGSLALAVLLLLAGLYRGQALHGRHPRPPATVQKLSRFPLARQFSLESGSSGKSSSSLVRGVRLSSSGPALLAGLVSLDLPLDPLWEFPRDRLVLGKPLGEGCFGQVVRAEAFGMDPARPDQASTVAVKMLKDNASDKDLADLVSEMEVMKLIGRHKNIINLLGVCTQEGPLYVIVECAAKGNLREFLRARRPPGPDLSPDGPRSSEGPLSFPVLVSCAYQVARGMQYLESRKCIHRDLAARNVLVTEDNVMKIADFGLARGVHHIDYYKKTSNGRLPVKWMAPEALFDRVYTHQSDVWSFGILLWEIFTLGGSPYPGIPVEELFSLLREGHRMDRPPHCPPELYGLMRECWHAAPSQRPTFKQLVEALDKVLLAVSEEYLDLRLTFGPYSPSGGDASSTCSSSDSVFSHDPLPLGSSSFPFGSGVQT
Description: as §1

MAP4K2 = biological target: T25, MAP4K2 (Homo sapiens, UniProt Q12851); conditions: read-out: % Cont @ 1 uM
T25 construct: purchased DiscoverX scanMAX Kinase panel
Description: as §1

PFCDPK1(P. falciparum) = biological target: T26, PFCDPK1(P. falciparum) (Plasmodium falciparum, UniProt P62344); conditions: read-out: % Cont @ 1 uM
T26 construct: purchased DiscoverX scanMAX Kinase panel
Description: as §1

EPHA6 = biological target: T27, EPHA6 (Homo sapiens, UniProt Q9UF33); conditions: read-out: % Cont @ 1 uM
T27 construct: purchased DiscoverX scanMAX Kinase panel
Description: as §1

p38-delta = biological target: T28, p38-delta (Homo sapiens, UniProt O15264); conditions: read-out: % Cont @ 1 uM
T28 construct: purchased DiscoverX scanMAX Kinase panel
Description: as §1

GAK = biological target: T29, GAK (Homo sapiens, UniProt O14976); conditions: read-out: % Cont @ 1 uM
T29 construct: purchased DiscoverX scanMAX Kinase panel
Description: as §1

STK36 = biological target: T30, STK36 (Homo sapiens, UniProt Q9NRP7); conditions: read-out: % Cont @ 1 uM
T30 construct: purchased DiscoverX scanMAX Kinase panel
Description: as §1

CSK = biological target: T31, CSK (Homo sapiens, UniProt P41240)
T31 construct: purchased DiscoverX scanMAX Kinase panel
Description: as §1

TEC = biological target: T32, TEC (Homo sapiens, UniProt P42680); conditions: read-out: % Cont @ 1 uM
T32 construct: purchased DiscoverX scanMAX Kinase panel
T32 sequence (P42680 whole entry): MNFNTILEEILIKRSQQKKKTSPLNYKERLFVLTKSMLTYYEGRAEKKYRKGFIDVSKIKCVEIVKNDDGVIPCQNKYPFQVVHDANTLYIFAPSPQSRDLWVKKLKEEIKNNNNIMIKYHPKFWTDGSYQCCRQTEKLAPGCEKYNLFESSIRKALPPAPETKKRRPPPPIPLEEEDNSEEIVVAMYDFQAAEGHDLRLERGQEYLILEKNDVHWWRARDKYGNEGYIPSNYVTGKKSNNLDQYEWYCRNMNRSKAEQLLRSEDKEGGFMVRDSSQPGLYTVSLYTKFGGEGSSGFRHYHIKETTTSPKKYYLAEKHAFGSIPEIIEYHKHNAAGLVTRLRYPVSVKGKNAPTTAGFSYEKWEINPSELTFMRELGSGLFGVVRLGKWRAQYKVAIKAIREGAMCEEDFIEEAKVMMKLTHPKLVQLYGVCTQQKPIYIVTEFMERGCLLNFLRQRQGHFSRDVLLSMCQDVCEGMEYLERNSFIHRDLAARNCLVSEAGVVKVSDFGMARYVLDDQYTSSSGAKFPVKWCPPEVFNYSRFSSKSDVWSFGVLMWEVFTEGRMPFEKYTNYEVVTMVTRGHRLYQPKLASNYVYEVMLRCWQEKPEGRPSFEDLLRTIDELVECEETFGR
Description: as §1

SLK = biological target: T33, SLK (Homo sapiens, UniProt Q9H2G2); conditions: read-out: % Cont @ 1 uM
T33 construct: purchased DiscoverX scanMAX Kinase panel
Description: as §1

RIPK2 = biological target: T34, RIPK2 (Homo sapiens, UniProt O43353); conditions: read-out: % Cont @ 1 uM
T34 construct: purchased DiscoverX scanMAX Kinase panel
Description: as §1

IRAK1 = biological target: T35, IRAK1 (Homo sapiens, UniProt P51617); conditions: read-out: % Cont @ 1 uM
T35 construct: purchased DiscoverX scanMAX Kinase panel
Description: as §1

TNNI3K = biological target: T36, TNNI3K (Homo sapiens, UniProt Q59H18); conditions: read-out: % Cont @ 1 uM
T36 construct: purchased DiscoverX scanMAX Kinase panel
Description: as §1

[3] = biological target: T37, ABL1(Q252H)-phosphorylated (Homo sapiens, UniProt P00519, Q252H); conditions: read-out: % Cont @ 1 uM
T37 construct: purchased DiscoverX
Description: as §1

RIPK1 = biological target: T38, RIPK1 (Homo sapiens, UniProt Q13546); conditions: read-out: % Cont @ 1 uM
T38 construct: purchased DiscoverX scanMAX Kinase panel
Description: as §1

FLT3(K663Q) = biological target: T39, FLT3(K663Q) (Homo sapiens, UniProt P36888, K663Q); conditions: read-out: % Cont @ 1 uM
T39 construct: purchased DiscoverX scanMAX Kinase panel
Description: as §1

Structure (SMILES) | % Cont @ 1 uM (JNK2) | remaining binding at 1 µM (SRC) | % Cont @ 1 uM (EGFR(L747-T751del, Sins)) | % Cont @ 1 uM (MLK3) | remaining binding at 1 µM (FGR) | % Cont @ 1 uM [1] | remaining binding at 1 µM (RET(V804L)) | remaining binding at 1 µM (p38-gamma) | percent of control binding at 1 µM (MLK1) | remaining binding at 1 µM (CDC2L1) | remaining binding at 1 µM (STK33) | remaining binding at 1 µM (RET(V804M)) | remaining binding at 1 µM (RET) | remaining binding at 1 µM (TESK1) | remaining binding at 1 µM (FGFR1) | percent of control binding at 1 µM (KIT(D816H)) | % Cont @ 1 uM (IRAK4) | remaining binding at 1 µM [2] | remaining binding at 1 µM (FLT4) | % Cont @ 1 uM (EGFR(G719C)) | further results
Cc1cn(-c2cc(NC(=O)c3cc(C#Cc4cnc5c(Nc6cnn(C)c6)cccn45)c(C)cc3F)cc(C(F)(F)F)c2)cn1 [Example 4, 2-fluoro-4-methyl-N-(3-(4-methyl-1H-imidazol-1-yl)-5-(trifluoromethyl)phenyl)-5-((8-((1-methyl-1H-pyrazol-4-yl)amino)imidazo[1,2-a]pyridin-3-yl)ethynyl)benzamide] | 81% | 1.4% | 28% | 57% | 12% | 40% | 6% | 88% | 76% | 79% | 76% | 4.3% | 0.2% | 100% | 27% | 53% | 89% | 10% | 4.4% | 56% | remaining binding at 1 µM (PAK3): 10%; remaining binding at 1 µM (MKNK2): 96%; remaining binding at 1 µM (SRMS): 54%; remaining binding at 1 µM (FGFR4): 53%; remaining binding at 1 µM (MAP4K2): 70%; remaining binding at 1 µM (PFCDPK1(P. falciparum)): 48%; remaining binding at 1 µM (EPHA6): 25%; percent of control binding at 1 µM (p38-delta): 92%; remaining binding at 1 µM (GAK): 80%; remaining binding at 1 µM (STK36): 45%; % Cont @ 1 uM (CSK): 0.8%; remaining binding at 1 µM (TEC): 46%; remaining binding at 1 µM (SLK): 34%; remaining binding at 1 µM (RIPK2): 37%; percent of control binding at 1 µM (IRAK1): 100%; remaining binding at 1 µM (TNNI3K): 41%; remaining binding at 1 µM [3]: 14%; remaining binding at 1 µM (RIPK1): 44%; remaining binding at 1 µM (FLT3(K663Q)): 2.8%
Cc1cn(-c2cc(NC(=O)c3cc(C#Cc4cnc5c(Nc6cnn(C)c6)cccn45)c(C)cc3F)cc(C(C)(C)C#N)c2)cn1 [Example 1, N-(3-(2-cyanopropane-2-yl)-5-(4-methyl-1H-imidazol-1-yl)phenyl)-2-fluoro-4-methyl-5-((8-((1-methyl-1H-pyrazol-4-yl)amino)imidazo[1,2-a]pyridin-3-yl)ethynyl)benzamide] | 12% | 0.1% | 11% | 10% | 3.5% | 1.3% | 0.6% | 17% | 18% | 27% | 12% | 0.35% | 0% | 33% | 1.2% | 12% | 34% | 0.25% | 0.35% | 5.2% | remaining binding at 1 µM (PAK3): 7.1%; remaining binding at 1 µM (MKNK2): 0.7%; remaining binding at 1 µM (SRMS): 1.2%; remaining binding at 1 µM (FGFR4): 2.8%; remaining binding at 1 µM (MAP4K2): 2.5%; remaining binding at 1 µM (PFCDPK1(P. falciparum)): 12%; remaining binding at 1 µM (EPHA6): 16%; percent of control binding at 1 µM (p38-delta): 29%; remaining binding at 1 µM (GAK): 25%; remaining binding at 1 µM (STK36): 20%; % Cont @ 1 uM (CSK): 0.3%; remaining binding at 1 µM (TEC): 1.3%; remaining binding at 1 µM (SLK): 1.2%; remaining binding at 1 µM (RIPK2): 3%; percent of control binding at 1 µM (IRAK1): 27%; remaining binding at 1 µM (TNNI3K): 1.8%; remaining binding at 1 µM [3]: 1.3%; remaining binding at 1 µM (RIPK1): 1.6%; remaining binding at 1 µM (FLT3(K663Q)): 10.8%
